Assay results as given in patent US20240376085A1 (Janssen Pharmaceutica NV, priority 2021, published 2024).

Experiments:
IL-17A : IL-17RA binding = biological target: T1, IL-17A : IL-17RA binding (Homo sapiens, UniProt Q16552, K93Q); assay: IL-17A(FLAG-tagged):IL-17RA(His-tagged) binding disruption Eu-HTRF assay, Protocol 1; details: FLAG-IL-17A 2.5 nM at 2x final concentration; average if tested more than once
T1 construct: Name: IL-17A-Flag
Outline: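 IC50 came from a one-site competition fit of the acceptor/donor (665/620 nm) HTRF ratio. His-tagged IL-17RA, Eu-anti-FLAG and D2-anti-His were added after a 1 h rt compound preincubation with FLAG-tagged IL-17A dimer in PBS/0.01% Triton X-100, followed by 2 h at rt before reading.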

[1] = tested on: IL-17A-induced G-CSF production in human normal keratinocyte (NHK); assay: NHK assay: IL-17A-induced G-CSF production in normal human keratinocytes; format: cell-based; details: Homo sapiens, Keratinocyte, 24 h, IL-17A 5 ng/mL, average if tested more than once
Outline: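 Compound titrations are first mixed with recombinant human IL-17A for 1 h at room temperature. The mixture goes onto adult normal human keratinocytes (final IL-17A 5 ng/mL, 5% FBS, 0.2% DMSO) for 24 h at 37 °C. Secreted G-CSF is then measured by HTRF and IC50 fitted.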

T1 sequence (Q16552 with tags, fused parts or gaps K93Q): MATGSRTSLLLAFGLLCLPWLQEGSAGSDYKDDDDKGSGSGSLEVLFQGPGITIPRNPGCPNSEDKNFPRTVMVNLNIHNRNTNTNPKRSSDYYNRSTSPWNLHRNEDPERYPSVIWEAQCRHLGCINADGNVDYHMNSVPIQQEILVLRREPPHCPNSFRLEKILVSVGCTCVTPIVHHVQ

In the case of `Cc1nonc1C(=O)N[C@H](c1nc2ccc([C@H](NC(=O)CC3CC(F)(F)C3)C3CC3)cc2[nH]1)C1CCOC(C)(C)C1` (single isomer, unassigned) [Example 173, N—((S)-(6-((R)-Cyclopropyl(2-(3,3-difluorocyclobutyl)acetamido)methyl)-1H-benzo[d]imidazol-2-yl)((S*)-2,2-dimethyltetrahydro-2H-pyran-4-yl)methyl)-4-methyl-1,2,5-oxadiazole-3-carboxamide], the IC50 (IL-17A : IL-17RA binding) is reported as greater than 100 nM and the IC50 [1] is reported as greater than 100 nM.
Compound `CC(C)c1ccsc1C(=O)N[C@H](c1nc2cc([C@@H](C)NC(=O)CCC(F)(F)F)ccc2[nH]1)C1CCC(F)(F)CC1` [Example 205, N—((S)-(4,4-Difluorocyclohexyl)(5-((R)-1-(4,4,4-trifluorobutanamido)ethyl)-1H-benzo[d]imidazol-2-yl)methyl)-3-isopropylthiophene-2-carboxamide] has an IC50 (IL-17A : IL-17RA binding) of less than 50 nM and an IC50 [1] of 50 to 100 nM.
With `CC(CC(=O)N[C@@H](c1ccc2[nH]c([C@H](COC(C)(C)C(F)(F)F)NC(=O)c3nonc3C3CC3)nc2c1)C1CC1)C(F)F` (single isomer, unassigned) [Example 175, 4-Cyclopropyl-N—((R)-1-(5-((R)-cyclopropyl((R*)-4,4-difluoro-3-methylbutanamido)methyl)-1H-benzo[d]imidazol-2-yl)-2-((1,1,1-trifluoro-2-methylpropan-2-yl)oxy)ethyl)-1,2,5-oxadiazole-3-carboxamide] the IC50 (IL-17A : IL-17RA binding) was less than 50 nM and the IC50 [1] was greater than 100 nM.
`C[C@@H](NC(=O)CCC(F)(F)F)c1ccc2[nH]c([C@@H](NC(=O)[C@@H]3C[C@H]3C#N)C3CCC(F)(F)CC3)nc2c1` (relative stereo) [Example 104, trans-(1R*,2R*)-2-Cyano-N—((S)-(4,4-difluorocyclohexyl)(5-((R)-1-(4,4,4-trifluorobutanamido)ethyl)-1H-benzo[d]imidazol-2-yl)methyl)cyclopropane-1-carboxamide] showed an IC50 (IL-17A : IL-17RA binding) greater than 100 nM and an IC50 [1] greater than 100 nM.
With `Cc1nonc1C(=O)N[C@@H](CO[C@H](C)C(F)(F)F)c1nc2ccc([C@H](NC(=O)CC3CC(F)(F)C3)C3CC3)cc2[nH]1` (relative stereo) [Example 150, N—((R*)-1-(6-((R)-Cyclopropyl(2-(3,3-difluorocyclobutyl)acetamido)methyl)-1H-benzo[d]imidazol-2-yl)-2-(((R*)-1,1,1-trifluoropropan-2-yl)oxy)ethyl)-4-methyl-1,2,5-oxadiazole-3-carboxamide] the IC50 (IL-17A : IL-17RA binding) was greater than 100 nM and the IC50 [1] was greater than 100 nM.
`C[C@@H](NC(=O)CCC(F)(F)F)c1ccc2nc([C@@H](NC(=O)c3cnn(C)c3C(F)F)C3CCC(F)(F)CC3)[nH]c2c1` [Example 59, N—((S)-(4,4-Difluorocyclohexyl)(6-((R)-1-(4,4,4-trifluorobutanamido)ethyl)-1H-benzo[d]imidazol-2-yl)methyl)-5-(difluoromethyl)-1-methyl-1H-pyrazole-4-carboxamide] showed an IC50 (IL-17A : IL-17RA binding) greater than 100 nM and an IC50 [1] greater than 100 nM.
For `C[C@@H](NC(=O)CCC(F)(F)F)c1ccc2[nH]c([C@@H](NC(=O)c3cnn(CC45CC(C#N)(C4)C5)n3)C3CCC(F)(F)CC3)nc2c1` [Example 78, 2-((3-Cyanobicyclo[1.1.1]pentan-1-yl)methyl)-N—((S)-(4,4-difluorocyclohexyl)(5-((R)-1-(4,4,4-trifluorobutanamido)ethyl)-1H-benzo[d]imidazol-2-yl)methyl)-2H-1,2,3-triazole-4-carboxamide], the IC50 (IL-17A : IL-17RA binding) was greater than 100 nM and the IC50 [1] was greater than 100 nM.
`C[C@@H](NC(=O)CCC(F)(F)F)c1ccc2nc([C@@H](NC(=O)c3cnnn3CC3CC(F)(F)C3)C3CCC(F)(F)CC3)[nH]c2c1` [Example 66, 1-((3,3-Difluorocyclobutyl)methyl)-N—((S)-(4,4-difluorocyclohexyl)(6-((R)-1-(4,4,4-trifluorobutanamido)ethyl)-1H-benzo[d]imidazol-2-yl)methyl)-1H-1,2,3-triazole-5-carboxamide] showed an IC50 (IL-17A : IL-17RA binding) greater than 100 nM and an IC50 [1] of 50 to 100 nM.
`CC(C)(C[C@H](NC(=O)c1nonc1C1CC1)c1nc2ccc([C@H](NC(=O)CCC(F)F)C3CC3)cc2[nH]1)C(F)(F)F` [Example 185, 4-Cyclopropyl-N—((S)-1-(6-((R)-cyclopropyl(4,4-difluorobutanamido)methyl)-1H-benzo[d]imidazol-2-yl)-4,4,4-trifluoro-3,3-dimethylbutyl)-1,2,5-oxadiazole-3-carboxamide] gave an IC50 (IL-17A : IL-17RA binding) of less than 50 nM and an IC50 [1] greater than 100 nM.
`O=C(CC1CC(F)(F)C1)N[C@@H](c1ccc2[nH]c([C@@H](NC(=O)c3nonc3C3CC3)[C@H]3[C@@H]4CC(F)(F)C[C@@H]43)nc2c1)C1CC1` [Example 266, 4-Cyclopropyl-N—((S)-(5-((R)-cyclopropyl(2-(3,3-difluorocyclobutyl)acetamido)methyl)-1H-benzo[d]imidazol-2-yl)((1R,5S,6r)-3,3-difluorobicyclo[3.1.0]hexan-6-yl)methyl)-1,2,5-oxadiazole-3-carboxamide] gave an IC50 (IL-17A : IL-17RA binding) of less than 50 nM and an IC50 [1] of less than 50 nM.
For `CCc1nonc1C(=O)N[C@@H](CC(C)(C)C(F)(F)F)c1nc2cc([C@@H](NC(=O)CCC(F)(F)F)C3CC3)ccc2[nH]1` (relative stereo) [Example 189, N—((S*)-1-(5-((S*)-Cyclopropyl(4,4,4-trifluorobutanamido)methyl)-1H-benzo[d]imidazol-2-yl)-4,4,4-trifluoro-3,3-dimethylbutyl)-4-ethyl-1,2,5-oxadiazole-3-carboxamide], the IC50 (IL-17A : IL-17RA binding) was greater than 100 nM and the IC50 [1] was greater than 100 nM.
Work on `CC(C)n1ncc(F)c1C(=O)NC(CC(C)(C)C(F)(F)F)c1nc2cc([C@@H](C)NC(=O)CCC(F)(F)F)ccc2[nH]1` (single isomer, unassigned) [Example 194, 4-Fluoro-1-isopropyl-N—((S*)-4,4,4-trifluoro-3,3-dimethyl-1-(5-((R)-1-(4,4,4-trifluorobutanamido)ethyl)-1H-benzo[d]imidazol-2-yl)butyl)-1H-pyrazole-5-carboxamide] yielded an IC50 (IL-17A : IL-17RA binding) greater than 100 nM and an IC50 [1] greater than 100 nM.
Work on `CC(C)n1cncc1C(=O)N[C@H](c1nc2cc([C@@H](C)NC(=O)CCC(F)(F)F)ccc2[nH]1)C1CCC(F)(F)CC1` [Example 208, N—((S)-(4,4-Difluorocyclohexyl)(5-((R)-1-(4,4,4-trifluorobutanamido)ethyl)-1H-benzo[d]imidazol-2-yl)methyl)-1-isopropyl-1H-imidazole-5-carboxamide] yielded an IC50 (IL-17A : IL-17RA binding) greater than 100 nM and an IC50 [1] greater than 100 nM.
Compound `C[C@@H](NC(=O)CCC(F)(F)F)c1ccc2[nH]c([C@@H](NC(=O)c3cnn(CCOC(F)(F)F)c3)C3CCC(F)(F)CC3)nc2c1` [Example 26, N—[(S)-(4,4-Difluorocyclohexyl)-[6-[(1R)-1-(4,4,4-trifluorobutanoylamino)ethyl]-1H-benzimidazol-2-yl]methyl]-1-[2-(trifluoromethoxy)ethyl]pyrazole-4-carboxamide] has an IC50 (IL-17A : IL-17RA binding) greater than 100 nM and an IC50 [1] greater than 100 nM.
With `C[C@@H](NC(=O)CCC(F)(F)F)c1ccc2nc([C@@H](NC(=O)c3cnnn3CCC(F)F)C3CCC(F)(F)CC3)[nH]c2c1` [Example 74, N—((S)-(4,4-Difluorocyclohexyl)(6-((R)-1-(4,4,4-trifluorobutanamido)ethyl)-1H-benzo[d]imidazol-2-yl)methyl)-1-(3,3-difluoropropyl)-1H-1,2,3-triazole-5-carboxamide] the IC50 (IL-17A : IL-17RA binding) was greater than 100 nM and the IC50 [1] was greater than 100 nM.
With `O=C(CC1CC(F)(F)C1)N[C@@H](c1ccc2[nH]c([C@@H](NC(=O)c3nonc3C3CC3)C3CCC(F)(F)CC3)nc2c1)C1CC1` [Example 143, 4-Cyclopropyl-N—((S)-(5-((R)-cyclopropyl(2-(3,3-difluorocyclobutyl)acetamido)methyl)-1H-benzo[d]imidazol-2-yl)(4,4-difluorocyclohexyl)methyl)-1,2,5-oxadiazole-3-carboxamide] the IC50 (IL-17A : IL-17RA binding) was less than 50 nM and the IC50 [1] was less than 50 nM.
`C[C@@H](NC(=O)CCC(F)(F)F)c1ccc2[nH]c([C@@H](NC(=O)c3cnc(CCC(F)(F)F)s3)C3CCC(F)(F)CC3)nc2c1` [Example 222, N—((S)-(4,4-Difluorocyclohexyl)(5-((R)-1-(4,4,4-trifluorobutanamido)ethyl)-1H-benzo[d]imidazol-2-yl)methyl)-2-(3,3,3-trifluoropropyl)thiazole-5-carboxamide] showed an IC50 (IL-17A : IL-17RA binding) greater than 100 nM and an IC50 [1] greater than 100 nM.
Compound `CC(C)n1nccc1C(=O)N[C@@H](COC1CC(F)(F)C1)c1nc2ccc([C@H](NC(=O)CC3CC(F)(F)C3)C3CC3)cc2[nH]1` [Example 257, N—((R)-1-(6-((R)-Cyclopropyl(2-(3,3-difluorocyclobutyl)acetamido)methyl)-1H-benzo[d]imidazol-2-yl)-2-(3,3-difluorocyclobutoxy)ethyl)-1-isopropyl-1H-pyrazole-5-carboxamide] has an IC50 (IL-17A : IL-17RA binding) greater than 100 nM and an IC50 [1] greater than 100 nM.
Compound `C[C@@H](NC(=O)CCC(F)(F)F)c1ccc2[nH]c([C@@H](NC(=O)c3cnn(CC(F)(F)F)n3)C3CCC(F)(F)CC3)nc2c1` [Example 22, N—[(S)-(4,4-Difluorocyclohexyl)-[6-[(1R)-1-(4,4,4-trifluorobutanoylamino)ethyl]-1H-benzimidazol-2-yl]methyl]-2-(2,2,2-trifluoroethyl)triazole-4-carboxamide] has an IC50 (IL-17A : IL-17RA binding) greater than 100 nM and an IC50 [1] greater than 100 nM.
`CC(C)CC(NC(=O)CCC(F)(F)F)c1ccc2[nH]c([C@@H](NC(=O)c3ccnn3C)C3CCC(F)(F)CC3)nc2c1` (single isomer, unassigned) [Example 48, N—((S)-(4,4-Difluorocyclohexyl)(5-((S*)-3-methyl-1-(4,4,4-trifluorobutanamido)butyl)-1H-benzo[d]imidazol-2-yl)methyl)-1-methyl-1H-pyrazole-5-carboxamide] gave an IC50 (IL-17A : IL-17RA binding) greater than 100 nM and an IC50 [1] greater than 100 nM.
